Assay results reported in patent US20220064214A1, “NOVEL PEPTIDES AND USES THEREOF” (CENNA BIOSCIENCES INC., priority 2019, published 2022).
Values joined by “and” are separate entries in the source; they are usually repeats but may differ in a detail not shown here. Equal entries are not always repeated. Marks after values point to notes of the source that are not given here. Square brackets hold non-standard residues; d marks the D form. Peptide text beside a SMILES is read from it.

What was measured:
[1] = Metabolic stability of peptides in fresh human plasma (LC/MS/MS); assay type: in vitro ADME; conditions: for rate at which metabolized in fresh human plasma (in words): compared among P8, 8M1 and 8M1D; for % Remaining / remaining at 3 h, 1 µM / remaining at 8 h, 1 µM / remaining at 24 h, 1 µM: fresh human plasma; for % Remaining: 0 h incubation; for remaining at 3 h, 1 µM: 3 h incubation; for remaining at 8 h, 1 µM: 8 h incubation; for remaining at 24 h, 1 µM: 24 h incubation
Experimental: P8, 8M1, and 8M1D were generated according to Example 1 with purities ranging from 98.0% to 99.0%. A primary 1.00 mM stock solution was prepared in either acetonitrile or acetonitrile:water (1:1, v/v) for each peptide. A 0.200 mM working stock was made from the primary stock in acetonitrile:water (1:1, v/v), which was used for the reactions. The primary and working stock solutions were stored at −20° C. when not in use, and they were kept at room temperature for as short a time as possible when in use. Fresh human plasma were maintained by adding sodium heparin as an anticoagulant.
The incubation procedures started when 5.00 μL of 0.2 mM (working stock solutions) of different peptides were added to 0.995 mL of fresh human plasma in a 1.7-mL snap tube. After 3, 8 and 24 hours of incubation, duplicate 50.0 μL aliquots of plasma were removed and placed into extraction tubes containing 150 μL of methanol, which served to quench any reactions, and thus incubations were ended. For each time point, the aliquotes were immediately extracted by vortex mixing and centrifugation. Resulting supernates were stored in High-Performance Liquid Chromatography (HPLC) vials and analyzed by LC/MS/MS after all samples were extracted. Valacyclovir was used as a positive control.
LC/MS/MS analysis of the incubation solutions was conducted by initial separation of the test article peaks using chromatography prior to detection by the mass spectrometer. The LC/MS system was comprised of a HPLC coupled with a TQS-Micro or Quattro Premier (Waters, Milford, Mass.). The mobile phase was nebulized using heated nitrogen in a Z spray source/interface set to electrospray in positive ionization mode for the peptides. The ionized peptides were detected using Tandem Quadropole Mass Spectrometry (MS/MS). The data was acquired using MassLynx (Waters, Milford, Mass.).
HPLC for the peptides and Valacyclovir control were performed with no guard columns, with a flow rate at 0.3 mL/min, with column temperature at 40° C., and autosampler temperature at 10° C. The column for peptides was MacMod ACE 2 Excel C18PFP, 100×2.1-mm, 2.0 μm, and the column for the control was Waters Atlantis T3, 150×2.1-mm, 5.0 μm. The injection loop and volumn for peptides were 50.0 μL and 20.0 μL respectively, and the ones for controls were 20.0 μL and 2.00 μL. For the Mass Spectrometer for the peptides and the Valacyclovir control, the source temperature was set to be 150° C., desolvation temperature was set to be 350° C., and polarity was set to be positive mode of electrospray ionization. Other parameters in HPLC and Mass Spectrometer are shown in Table 2.1, Table 2.2 and Table 3 below.

[2] = Pharmacokinetics study in rats, plasma; assay type: in vivo; conditions: rat; for plasma concentration: individual rats
Experimental: (§1) An in-vivo study was carried out in rats to determine the pharmacokinetics (PK) of peptides P8, 8M1D and 8M2D in plasma and CSF. Each peptide was assessed through two dosage routes, intravenous (IV) and subcutaneous (SC). Three rats were assigned to each dose group with each peptide. Total of twelve rats per peptide were used.
(§2) Blood was collected through jugular vein cannulas, and the samples were collected into tubes with K2EDTA. After centrifuging at a temperature of 2 to 8° C. at 4,000×g for 5 minutes, the resulting plasma was split into equal aliquots, frozen, and stored at −60 to −80° C. One aliquot was for PK analysis and the other was for Aβ analysis (see Example 4).

[3] = Pharmacokinetics study in rats, CSF; assay type: in vivo; set-up: CSF concentration, Mean IV / CSF concentration, Mean SC: unit not given here; conditions: rat; for CSF concentration, Mean IV: 10 mg/kg IV; for CSF concentration, Mean SC: 10 mg/kg SC
Experimental: as §1
CSF collection was performed by first anesthetizing animals at specified time points (see Table 5) with a mixture of 80 mg/kg ketamine and 8 mg/kg xylazine. The depth of anesthesia was monitored by toe pinches. CSF was collected via the cisterna magna (˜0.05 mL), and it was split into equal aliquots, frozen, and stored at −60 to −80° C.

Aβ40 = test: Efficacy in reducing Aβ40 in rat plasma (ELISA); assay type: in vivo; conditions: 10 mg/kg SC; for reduction in Aβ40: rat plasma; for Percent Decrease in Aβ 40 in Rat Plasma: mean of 3 rats, negative = decrease
Experimental: as §2
Rats (n=3 per peptide) were administered with P8, 8M1D, or 8M2D (10 mg/kg) subcutaneously, and plasma were collected at 0, 6, 12, and 24 h after dosing and Aβ40 analysis was carried out by ELISA (Invitrogen).

γ-secretase = conditions: phase III clinical trial, cited from earlier work
[4] = 10 mg/kg IV and SC, at Cmax and most subsequent time points

CC(C)C[C@H](NC(=O)[C@H](CCC(=O)O)NC(=O)[C@H](CCC(=O)O)NC(=O)[C@H](CC(=O)O)NC(=O)[C@H](CCC(=O)O)NC(=O)[C@H](CCC(=O)O)NC(=O)[C@H](CCC(=O)O)NC(=O)[C@H](N)CC(=O)O)C(N)=O [8M1D, dEEEDEEL-NH2] (H-[dD]EEEDEEL-NH2)
stability in fresh human plasma (in words) [1]: relatively stable | rate at which metabolized in fresh human plasma (in words) [1]: slowest | % Remaining [1]: 100% | remaining at 3 h, 1 µM [1]: 115% | remaining at 8 h, 1 µM [1]: 100% | remaining at 24 h, 1 µM [1]: 89.6% | exposure in plasma compared with P8 (in words) [2, 4]: better exposures than P8 | plasma concentration ([2]; 10 mg/kg IV, 0 hr (pre-dose)): BQL | plasma concentration ([2]; 10 mg/kg IV, 0.167 hr, 10 mg/kg, in ng/mL (unit assumed)): 25,600 and 23,000 and 20,200 | plasma concentration ([2]; 10 mg/kg IV, 0.5 hr, 10 mg/kg, in ng/mL (unit assumed)): 7,140 and 8,630 and 6,650 | plasma concentration ([2]; 10 mg/kg IV, 1 hr, 10 mg/kg, in ng/mL (unit assumed)): 1,680 and 2,160 and 1,580 | plasma concentration ([2]; 10 mg/kg IV, 2 hr, 10 mg/kg, in ng/mL (unit assumed)): 215 and 360 and 290 | plasma concentration ([2]; 10 mg/kg IV, 4 hr, 10 mg/kg, in ng/mL (unit assumed)): 25.6 and 16.0 and 17.0 | plasma concentration ([2]; 10 mg/kg IV, 6 hr, 10 mg/kg): 2.93 ^b and 0.805 ^b and 1.48 ^b | plasma concentration ([2]; 10 mg/kg IV, 8 hr): BQL | plasma concentration ([2]; 10 mg/kg IV, 12 hr): BQL | plasma concentration ([2]; 10 mg/kg IV, 24 hr): BQL | plasma concentration ([2]; 10 mg/kg SC, 0 hr (pre-dose)): BQL | plasma concentration ([2]; 10 mg/kg SC, 0.167 hr, 10 mg/kg): 20,500 ^a and 19,100 and 25,900 | plasma concentration ([2]; 10 mg/kg SC, 0.5 hr, 10 mg/kg): 12,300 ^a and 10,900 and 11,800 | plasma concentration ([2]; 10 mg/kg SC, 1 hr, 10 mg/kg, in ng/mL (unit assumed)): 5,440 and 4,310 and 3,410 | plasma concentration ([2]; 10 mg/kg SC, 2 hr, 10 mg/kg, in ng/mL (unit assumed)): 1,330 and 1,570 and 642 | plasma concentration ([2]; 10 mg/kg SC, 4 hr, 10 mg/kg, in ng/mL (unit assumed)): 49.8 and 75.3 and 43.9 | plasma concentration ([2]; 10 mg/kg SC, 6 hr, 10 mg/kg): 11.4 and 8.83 ^b and 4.66 ^b | plasma concentration ([2]; 10 mg/kg SC, 8 hr, 10 mg/kg): 1.29 ^b and BQL (2×) | plasma concentration ([2]; 10 mg/kg SC, 12 hr): BQL | plasma concentration ([2]; 10 mg/kg SC, 24 hr): BQL | time after dosing at which detectable in CSF ([3]; 10 mg/kg IV and SC): ≥ 8 h | exposure in CSF compared with P8 (in words) [3, 4]: better exposures than P8 | CSF concentration, Mean IV ([3]; 0 hr): 0 | CSF concentration, Mean IV ([3]; 0.5 hr): 67.8 | CSF concentration, Mean IV ([3]; 1 hr): 80.8 | CSF concentration, Mean IV ([3]; 2 hr): 65 | CSF concentration, Mean IV ([3]; 4 hr): 23.4 | CSF concentration, Mean IV ([3]; 8 hr): 0.913 | CSF concentration, Mean IV ([3]; 12 hr): 0 | CSF concentration, Mean IV ([3]; 24 hr): 0.261 | CSF concentration, Mean SC ([3]; 0 hr): 0 | CSF concentration, Mean SC ([3]; 0.5 hr): 50.9 | CSF concentration, Mean SC ([3]; 1 hr): 66.1 | CSF concentration, Mean SC ([3]; 2 hr): 62.9 | CSF concentration, Mean SC ([3]; 4 hr): 18.9 | CSF concentration, Mean SC ([3]; 8 hr): 3.85 | CSF concentration, Mean SC ([3]; 12 hr): 0 | CSF concentration, Mean SC ([3]; 24 hr): 0 | reduction in Aβ40 (Aβ40; 12 hr post dosing): about 27% | reduction in Aβ40 (Aβ40; 24 h post dosing): about 19% | Percent Decrease in Aβ 40 in Rat Plasma (Aβ40; 0 h): 0.00% | Percent Decrease in Aβ 40 in Rat Plasma (Aβ40; 6 h): −23.61% | Percent Decrease in Aβ 40 in Rat Plasma (Aβ40; 12 h): −27.34% | Percent Decrease in Aβ 40 in Rat Plasma (Aβ40; 24 h): −19.13%

CC(C)[C@H](O)C(=O)N[C@@H](C)C(=O)N[C@@H]1C(=O)N(C)CCc2ccccc21 [semagacestat]
functional ability (in words) (γ-secretase; patients receiving the higher dose): significant worsening of functional ability | effect on improving cognitive functions (in words) (γ-secretase; patients): no effects on improving cognitive functions | adverse events (in words) (γ-secretase): more adverse events including skin cancers and infections

H-DEEEDEEL-NH2 [8M1, DEEEDEEL-NH2]
rate at which metabolized in fresh human plasma (in words) [1]: fastest | % Remaining [1]: 100% | remaining at 3 h, 1 µM [1]: 87.1% | remaining at 8 h, 1 µM [1]: 65.1% | remaining at 24 h, 1 µM [1]: 47.1%
